The source of these data is patent publication US20080026996A1, “Selective Vpac2 Receptor Reptide Agonists” (ELI LILLY AND COMPANY, priority 2004, published 2008).

Where a SMILES comes first, the peptide text is derived from it. Where no end group is shown, it is not given here. [ ]: non-standard residue; d: D form. The star is where a group is joined. Hexanoyl = CCCCCC(=O)*; Aib = CC(C)(N)C(=O)O

Data set [1] in a line: Rat serum stability studies (remaining active peptide by DiscoveRx cAMP on CHO-VPAC2 cells). Type of data set: in vitro ADME. In outline: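 Rat serum, 18 h: +aprotinin aliquot at 4° C, no-aprotinin aliquot at 37° C. Then 30 min RT step, supernatant removed, 1 h shaking at 300 rpm. DiscoveRx cAMP kit on CHO-VPAC2; EC50 from cAMP data vs standards.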
The target of data set [2] is T1, human VPAC1 (Homo sapiens, UniProt P32241).
T1 sequence (P32241 31-457): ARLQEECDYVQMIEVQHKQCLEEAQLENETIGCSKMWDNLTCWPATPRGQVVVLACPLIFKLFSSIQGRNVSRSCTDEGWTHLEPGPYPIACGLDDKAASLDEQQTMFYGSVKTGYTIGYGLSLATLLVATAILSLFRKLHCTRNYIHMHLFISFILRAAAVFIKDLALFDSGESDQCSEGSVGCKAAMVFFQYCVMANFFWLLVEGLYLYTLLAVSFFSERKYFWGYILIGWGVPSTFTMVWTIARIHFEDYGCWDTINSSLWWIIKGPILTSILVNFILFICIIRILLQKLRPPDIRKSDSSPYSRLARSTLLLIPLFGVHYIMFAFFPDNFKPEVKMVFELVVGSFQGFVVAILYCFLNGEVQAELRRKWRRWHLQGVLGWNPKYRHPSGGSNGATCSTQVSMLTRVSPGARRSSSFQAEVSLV
Kind of data set: Filter binding assay, membranes of cells transiently transfected with human VPAC1, 125I-labeled VIP tracer (Table 2). The note with it: read-out: Human VPAC1 Receptor Binding. Also noted: expressed in transfected cells. In outline: (§1)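 Competition binding of agonists against radiotracer on receptor membranes (2.5 μg) in 25 mM HEPES pH 7.4 with 0.5% protease-free BSA, about 40000 cpm tracer, 1 hour with shaking. Bound tracer was separated by filtration on PEI-presoaked, BSA-blocked glass-fibre filters, washed and counted by scintillation.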

Data set [3] has as its target T2, human PAC1 (Homo sapiens, UniProt P41586).
T2 sequence (P41586 21-468): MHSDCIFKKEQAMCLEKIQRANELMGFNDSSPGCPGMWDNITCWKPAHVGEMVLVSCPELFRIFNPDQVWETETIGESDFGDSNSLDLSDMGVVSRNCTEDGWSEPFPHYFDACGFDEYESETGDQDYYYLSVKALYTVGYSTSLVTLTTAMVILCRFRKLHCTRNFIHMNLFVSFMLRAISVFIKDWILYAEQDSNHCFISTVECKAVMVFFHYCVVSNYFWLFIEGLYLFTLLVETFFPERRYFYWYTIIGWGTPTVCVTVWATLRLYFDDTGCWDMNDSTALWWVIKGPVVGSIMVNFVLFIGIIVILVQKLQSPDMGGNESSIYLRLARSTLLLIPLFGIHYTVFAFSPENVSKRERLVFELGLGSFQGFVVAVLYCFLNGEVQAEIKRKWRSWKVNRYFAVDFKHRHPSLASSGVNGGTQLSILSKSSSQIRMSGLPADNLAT
Kind of data set: Filter binding assay, membranes of cells transiently transfected with human PAC1, 125I-labeled PACAP-27 tracer (Table 2). Also noted: expressed in transfected cells. The note with it: read-out: Human PAC1 Receptor Binding. In outline: as §1

For data set [4], the target named is T3, human VPAC2 (Homo sapiens, UniProt P41587).
T3 construct: expressed in transfected cells
T3 sequence (P41587 24-438): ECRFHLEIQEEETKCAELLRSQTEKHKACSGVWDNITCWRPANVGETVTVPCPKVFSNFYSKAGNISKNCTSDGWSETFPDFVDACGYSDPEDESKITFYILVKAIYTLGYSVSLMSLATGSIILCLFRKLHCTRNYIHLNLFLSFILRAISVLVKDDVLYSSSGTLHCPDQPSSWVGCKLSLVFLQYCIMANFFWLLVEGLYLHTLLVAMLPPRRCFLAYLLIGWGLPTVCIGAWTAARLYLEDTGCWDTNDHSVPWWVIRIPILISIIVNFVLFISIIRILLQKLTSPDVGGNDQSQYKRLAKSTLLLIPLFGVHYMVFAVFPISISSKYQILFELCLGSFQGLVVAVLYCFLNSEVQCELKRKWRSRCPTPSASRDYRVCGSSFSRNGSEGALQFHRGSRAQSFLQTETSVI
Kind of data set: Alpha screen cAMP in vitro potency, human VPAC2 receptor. Conditions: cAMP generation; single result from two analyses performed in a single run; read-out: Human VPAC2 Receptor: Alpha Screen EC50. Type of data set: cell-based. Put shortly:
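Dissociated cells, 50,000 per point in stimulation buffer, were incubated with stimuli and AlphaScreen acceptor beads for 60 min.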

Data set [5] concerns the target T3, human VPAC2. In words: Filter binding assay, membranes of stable VPAC2 cell line, 125I-labeled VIP tracer (Table 2). Conditions: read-out: Human VPAC2 Receptor Binding. Put shortly:
as §1

What is called EC50 is the concentration giving half of the maximal effect. “Hexanoyl-HSDAVFTDNYTRLRKQVAAIKYLQSIKNKRYGGPSSGAPPPS [Agonist P149]”: the “Rat Serum Stability (estimated purity in % after 18 hours)” value in data set [1] was 0.29%. Moreover, the figures for the IC50 in data set [2], in data set [3] and in data set [5] were 212 nM, 773 nM and 0.61 nM, respectively. For the same molecule, the EC50 in data set [4] is 0.41 nM.

With “Hexanoyl-HSDAVFTDNYTRLQKQVAAK[Aib]YLQSIKNKRYGGPSSGAPPPS [Agonist P251]”, in data set [1], the “Rat Serum Stability (estimated purity in % after 18 hours)” value was 6.63%. Besides, the values for the IC50 in data set [2], in data set [3] and in data set [5] were more than 3000 nM, more than 25000 nM and 2.33 nM, respectively. The EC50 in data set [4] came to 0.92 nM.

For the molecule “Hexanoyl-HSDAVFTDNYTRLRAQVAAQKYLQSIKNKRYGGPSSGAPPPS [Agonist P138]”, in data set [1], the “Rat Serum Stability (estimated purity in % after 18 hours)” value is given as 0.48%. In addition, the results for the IC50 in data set [2], in data set [3] and in data set [5] were 5.28 nM, 1110 nM and 1.01 nM, respectively. Further, the EC50 in data set [4] is 0.45 nM.

For “Hexanoyl-HSDAVFTDNYTRLKKQVAAKKYLQSIKNKRYGGPSSGAPPPS [Agonist P171]”, the “Rat Serum Stability (estimated purity in % after 18 hours)” value in data set [1] is given as 1.78%. The IC50 in data set [2] was found to be 174 nM; in data set [3], 335 nM; in data set [5], 5.81 nM. The EC50 in data set [4] was determined as 0.82 nM.

Take “Hexanoyl-HSDAVFTDNYTRLRK(Ac)QVAAKK(Ac)YLQSIKNKRYGGPSSGAPPPS [Agonist P194]”: the “Rat Serum Stability (estimated purity in % after 18 hours)” value in data set [1] is 1.11%. For the same molecule, the IC50 turned out to be 173 nM in data set [2], 626 nM in data set [3] and 0.28 nM in data set [5]. The half-maximal effective concentration (EC50) in data set [4] turned out to be 0.13 nM.

With “Hexanoyl-HSDAVFTDNYTRLRKQVAAKKILQSIKNKRYGGPSSGAPPPS [Agonist P133]”, the “Rat Serum Stability (estimated purity in % after 18 hours)” value in data set [1] is reported as less than 2.00%. The values for the IC50 in data set [2], in data set [3] and in data set [5] were 470 nM, 1940 nM and 5.3 nM, respectively.

In the case of “Hexanoyl-HSDAVFTYNYTRLRKQVAAKKYLQSIKNKRYGGPSSGAPPPS [Agonist P163]”, the “Rat Serum Stability (estimated purity in % after 18 hours)” value in data set [1] is given as less than 1.25%. Also, the results for the IC50 in data set [2], in data set [3] and in data set [5] were 35.7 nM, 238 nM and 2 nM, respectively.

On to `CCCCCC(=O)N[C@@H](Cc1c[nH]cn1)C(=O)N[C@@H](CO)C(=O)N[C@@H](CC(=O)O)C(=O)N[C@@H](C)C(=O)N[C@H](C(=O)N[C@@H](Cc1ccccc1)C(=O)N[C@H](C(=O)N[C@@H](CC(=O)O)C(=O)N[C@@H](CC(N)=O)C(=O)N[C@@H](Cc1ccc(O)cc1)C(=O)N[C@H](C(=O)N[C@@H](CCCNC(=N)N)C(=O)N[C@@H](CC(C)C)C(=O)NC(C)(C)C(=O)N[C@@H](CCCCN)C(=O)N[C@@H](CCC(N)=O)C(=O)N[C@H](C(=O)N[C@@H](C)C(=O)N[C@@H](C)C(=O)NC(C)(C)C(=O)N[C@@H](CCCCN)C(=O)N[C@@H](Cc1ccc(O)cc1)C(=O)N[C@@H](CC(C)C)C(=O)N[C@@H](CCC(N)=O)C(=O)N[C@@H](CO)C(=O)N[C@H](C(=O)N[C@@H](CCCCN)C(=O)N[C@@H](CCC(N)=O)C(=O)N[C@@H](CCCCN)C(=O)NCC(=O)NCC(=O)N1CCC[C@H]1C(=O)N[C@@H](CO)C(=O)N[C@@H](CO)C(=O)NCC(=O)N[C@@H](C)C(=O)N1CCC[C@H]1C(=O)N1CCC[C@H]1C(=O)N1CCC[C@H]1C(=O)N[C@@H](CO)C(=O)O)[C@@H](C)CC)C(C)C)[C@@H](C)O)[C@@H](C)O)C(C)C` [Agonist P293] (Hexanoyl-HSDAVFTDNYTRL[Aib]KQVAA[Aib]KYLQSIKQKGGPSSGAPPPS-OH; C-terminus assumed), for which the “Rat Serum Stability (estimated purity in % after 18 hours)” value in data set [1] is on record as 32.70%. In addition, the results for the IC50 in data set [2], in data set [3] and in data set [5] were more than 3000 nM, more than 25000 nM and 16.7 nM, respectively.

Take “Hexanoyl-HSDAVFTDNYTRLRFQVAAKKYLQSIKNKRYGGPSSGAPPPS [Agonist P180]”: the “Rat Serum Stability (estimated purity in % after 18 hours)” value in data set [1] is recorded as 1.14%. Further, the IC50 in data set [2] is more than 3000 nM; in data set [3], 589 nM; in data set [5] it was 5.63 nM.

Take “Hexanoyl-HSDAVFTDNYTRL[Aib]KQLAAK[Aib]YLQSIKNKRYGGPSSGAPPPS [Agonist P241]”: the “Rat Serum Stability (estimated purity in % after 18 hours)” value in data set [1] is 62.55%. For the same molecule, the IC50 in data set [2] was more than 3000 nM; in data set [3], more than 25000 nM; in data set [5] it was 18.1 nM.

As for “Hexanoyl-HSDAVFTDNYTRLRKQVAAKKYLQSIKNKRYGGPSSGAPPPC [Agonist P120]”, in data set [1], the “Rat Serum Stability (estimated purity in % after 18 hours)” value is 5%. Also, the IC50 in data set [3] came out at 577 nM; in data set [5], 0.44 nM. For the same molecule, the EC50 in data set [4] amounted to 0.06 nM.

“Hexanoyl-HSDAVFTDNYTRL[Aib]KQVAA[Aib]KYLQSIKNKRYGGPSSGAPPPS [Agonist P242]”: in data set [1], the “Rat Serum Stability (Estimated purity in % after 72 hours)” value was 3.8%. Besides, the “Rat Serum Stability (estimated purity in % after 18 hours)” value in data set [1] was 40.28%. Moreover, the IC50 in data set [2] is more than 3000 nM; in data set [3], more than 25000 nM; in data set [5] it was 6.78 nM.

`CCCCCC(=O)N[C@@H](Cc1c[nH]cn1)C(=O)N[C@@H](CO)C(=O)N[C@@H](CC(=O)O)C(=O)N[C@@H](C)C(=O)N[C@H](C(=O)N[C@@H](Cc1ccccc1)C(=O)N[C@H](C(=O)N[C@@H](CC(=O)O)C(=O)N[C@@H](CC(N)=O)C(=O)N[C@@H](Cc1ccc(O)cc1)C(=O)N[C@H](C(=O)N[C@@H](CCCNC(=N)N)C(=O)N[C@@H](CC(C)C)C(=O)NC(C)(C)C(=O)N[C@@H](CCCCN)C(=O)N[C@@H](CCC(N)=O)C(=O)N[C@H](C(=O)N[C@@H](C)C(=O)N[C@@H](C)C(=O)NC(C)(C)C(=O)N[C@@H](CCCCN)C(=O)N[C@@H](Cc1ccc(O)cc1)C(=O)N[C@@H](CC(C)C)C(=O)N[C@@H](CCC(N)=O)C(=O)N[C@@H](CO)C(=O)N[C@H](C(=O)N[C@@H](CCCCN)C(=O)N[C@@H](CCC(N)=O)C(=O)NCC(=O)NCC(=O)N1CCC[C@H]1C(=O)N[C@@H](CO)C(=O)N[C@@H](CO)C(=O)NCC(=O)N[C@@H](C)C(=O)N1CCC[C@H]1C(=O)N1CCC[C@H]1C(=O)N1CCC[C@H]1C(=O)N[C@@H](CO)C(=O)O)[C@@H](C)CC)C(C)C)[C@@H](C)O)[C@@H](C)O)C(C)C` [Agonist P296] (Hexanoyl-HSDAVFTDNYTRL[Aib]KQVAA[Aib]KYLQSIKQGGPSSGAPPPS-OH; C-terminus assumed): the “Rat Serum Stability (estimated purity in % after 18 hours)” value in data set [1] is 42.26%. The IC50 in data set [2] is more than 3000 nM; in data set [3] it was more than 25000 nM; in data set [5], more than 100 nM.

In the case of “Hexanoyl-HSDAVFTDNYTRL[Aib]KQVAAVKYLQSIKNKRYGGPSSGAPPPS [Agonist P269]”, in data set [1], the “Rat Serum Stability (estimated purity in % after 18 hours)” value is reported as 23.85%. The figures for the IC50 in data set [2], in data set [3] and in data set [5] were more than 3000 nM, more than 25000 nM and 10.1 nM, respectively.

As to “Hexanoyl-HSDAVFTDNYTRL[Aib]KQVAALKYLQSIKNKRYGGPSSGAPPPS [Agonist P259]”, in data set [1], the “Rat Serum Stability (estimated purity in % after 18 hours)” value is 17.65%. Further, the IC50 in data set [2] was 3460 nM; in data set [3], more than 3000 nM; in data set [5], 13.2 nM.
